Measurements from US20260297129A1, “PEPTIDES AS SELECTIVE IL-23 RECEPTOR INHIBITORS” (SANOFI, priority 2023, published 2026).
Converted amounts (≈) assume the structure as drawn. Like-named read-outs stand apart in the source and are kept apart here. Numbered stars: 1 amine (or outer) side, 2 acyl side, 3 side chain; on linkers, the order of the positions; unused ones are H or OH. Bridge positions count the residues as written; N and C are the ends. Square brackets hold non-standard residues; d marks the D form. Peptide text beside a SMILES is read from it. * marks the point of attachment. Trp(7-Me) = Cc1cccc2c(C[C@H](N)C(=O)O)c[nH]c12; Sebacoyl = O=C(CCCCCCCCC(=O)[*:2])[*:1]; 2Nal = N[C@@H](Cc1ccc2ccccc2c1)C(=O)O; 3Pal = N[C@@H](Cc1cccnc1)C(=O)O; Lys(Me) = CNCCCC[C@H](N)C(=O)O; Thp = NC1(C(=O)O)CCOCC1; Me2NCH2CH2 = CN(C)CC*; Aib = CC(C)(N)C(=O)O; Sar = CNCC(=O)O

Key:
[1] = Protease stability in simulated intestinal fluids (FaSSIF) (Table 7); assay type: in vitro ADME; conditions: fassif with pancreatin, 37° C.
Outline: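 1 μM peptide incubated at 37° C in simulated fluid (pancreatin-SIF prepared from pancreatin in SIF concentrate). Samples quenched with acidified ethanol at 0, 60, 120 and 240 min and analysed by LC-MS/MS. Percentage remaining from peak area relative to T0 (100%).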

[2] = Solubility of peptide compounds in buffer formulations (Table 5); assay type: physicochemical; conditions: target 1 mg/ml
Outline: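 Peptide solids, dried from DMSO stock, were taken up at 1 mg/mL in 50 mM HCl pH 1.2, or 50 mM phosphate pH 6.5 or pH 7.4. After 2 h gentle agitation and filtration (0.45 μm), solubility was determined by UHPLC-UV peak area against a DMSO standard of known concentration.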

human IL-23R = molecular target: T1, human IL-23R (Homo sapiens, UniProt Q5VWK5); assay: Inhibition of IL-23 binding to IL-23R as measured by ELISA (Table 8); conditions: human IL23 coated 1 μg/ml; human IL-23R-Fc 0.1 μg/ml; 60 min; read-out: Human ELISA IL23/IL23R IC50
T1 sequence (Q5VWK5 24-353 limits assumed): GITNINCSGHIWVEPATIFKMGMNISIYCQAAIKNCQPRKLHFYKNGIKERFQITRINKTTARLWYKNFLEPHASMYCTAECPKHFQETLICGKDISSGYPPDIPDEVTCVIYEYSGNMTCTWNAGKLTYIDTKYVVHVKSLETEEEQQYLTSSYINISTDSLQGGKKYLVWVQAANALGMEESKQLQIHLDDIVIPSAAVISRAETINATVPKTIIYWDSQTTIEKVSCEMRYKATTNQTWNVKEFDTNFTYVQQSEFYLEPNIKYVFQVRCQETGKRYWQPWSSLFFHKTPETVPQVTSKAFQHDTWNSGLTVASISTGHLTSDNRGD
Protocol: Antagonism of compounds for human interleukin-23 receptor inhibitors, was determined by an ELISA assay.
A 384-well plate was coated with 50 μl/well of human IL23 at a final concentration of 1 μg/ml and incubated overnight at 4° C. The wells were washed 3 times with 80 μl wash buffer and blocked with 80 μl blocking buffer for 60 minutes at room temperature and washed again. 20 μl of serially diluted test peptides was added to each well and subsequently 20 μl of recombinant human IL-23R-Fc chimera at final concentration of 0.1 μg/ml. The plate was incubated for 60 minutes at room temperature. After the wells were washed, bound IL23R-Fc was detected with goat anti-hu-IgG1-HRP antibody. Signals were visualized with QUANTABLU fluorogenic peroxidase substrate.

[3] = Protease stability in simulated gastric fluids (FaSSGF) (Table 7); assay type: in vitro ADME; conditions: fassgf with pepsin, 60 min, 37° C., read-out: Remaining percentage of peptide compound, FaSSGF 60 (min)
Outline: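 Peptides at 1 μM final were incubated at 37 °C in simulated gastric fluid with pepsin (320 mg per 100 mL SGF concentrate). Samples were quenched with ethanol (0.1% HCOOH) at 0, 60, 120 and 240 min and analysed by LC-MS/MS. Percent remaining is the peak area relative to T0 (100%).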

[4] = system: IL-23 induced STAT3 signaling (IL-23 receptor) in HEK-Blue IL-23 cells; assay: Inhibition of IL-23 induced STAT3 signaling in HEK-Blue IL-23 cells, SEAP reporter (Table 9); assay type: cell-based; conditions: human IL23 0.25 ng/ml, overnight, read-out: Inhibition of IL-23 induced pSTAT3 (IC50 nM)
Outline: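 HEK-Blue IL-23 reporter cells (10,000/well) pre-incubated 60 min at 37 °C with serially diluted peptides, then stimulated overnight with human IL-23 at 0.25 ng/ml final. SEAP in supernatant read by QUANTI-Blue, 45 min room temperature, OD 620–655 nm; dose-response curve fitting.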

Work on `Cc1cccc2c(C[C@@H]3NC(=O)CCCCCCCCC(=O)N(C)CCCC[C@@H](C(=O)N[C@@H](CC(N)=O)C(=O)N[C@@H](Cc4cccnc4)C(=O)N(C)CC(N)=O)NC(=O)C(C)(C)NC(=O)[C@H](Cc4ccc5ccccc5c4)NC(=O)[C@H](Cc4ccc(OCCN(C)C)cc4)NC(=O)C4(CCOCC4)NC(=O)[C@H](CCC(N)=O)NC3=O)c[nH]c12` [compound 19] ([Trp(7-Me)]Q[Thp]Y(Me2NCH2CH2)[2Nal][Aib][Lys(Me)]N[3Pal][Sar]-NH2; linker N-7 via Sebacoyl) yielded a remaining at 1 h, 1 µM ([1]; 60 min, read-out: Remaining percentage of peptide compound, FaSSIF 60 (min)) of 80%, a remaining at 2 h, 1 µM ([1]; 120 min, read-out: Remaining percentage of peptide compound, FaSSIF 120 (min)) of 78% and a remaining at 4 h, 1 µM ([1]; 240 min, read-out: Remaining percentage of peptide compound, FaSSIF 240 (min)) of 74%. It also gave a solubility at 2 h ([2]; Buffer pH 1.1 (head; method: 50 mM HCl pH 1.2), 2 h agitation, read-out: Solubility, Buffer pH 1.1) of no less than 1390 µg/mL, a solubility at 2 h ([2]; aqueous buffer, 50 mM phosphate buffer pH 6.5, 2 h agitation, read-out: Solubility, Buffer pH 6.5) of 120 µg/mL (≈ 73.6 µM) and a solubility at 2 h ([2]; aqueous buffer, 50 mM phosphate buffer pH 7.4, 2 h agitation, read-out: Solubility, Buffer pH 7.4) of 80 µg/mL (≈ 49.1 µM). For the same compound, the IC50 (human IL-23R) was 0.63 nM, the remaining at 1 h, 1 µM [3] was 97% and the IC50 [4] was 0.24 nM.
